Data: patent US7572753B2 (priority 2005, dated 2009)

System: Pyricularia oryzae
Type: in vivo
Conditions: 300 ppm, greenhouse foliar application spray on rice (var. Lemont) plants, inoculated within 24 hours from spraying

N#CCn1nnc(-c2ccccc2)n1 [Example 1, 5-phenyl-2H-tetrazole-2-acetonitrile]
Percent (%) disease control, Rice Blast: 70%
